# Laboratory results reported in patent publication US7189751B2, “Oxa(thia)zolidine compounds, process for preparation thereof and anti-inflammatory agents” (Nippon Soda Co., Ltd., priority 2001, dated 2007).
# Columns and labels:
# [1] = system: acetic acid induced writhes; experiment: Acetic acid writhing; format: in vivo, mouse
# Procedure: Pharmacological Test Example 4: Acetic Acid Wirthing
# This test was carried out referring to the method of Inoue, K., Motonaga, A. & Nishimura, T (Arzneimittel Forshung/Drug Research, 41 (1): 235–239 (1991)). More specifically, 7.5 mL/kg of 0.9% acetic acid solution was injected intraperitoneally into an ICR-strain male mouse (5 to 7 weeks old), and the induced writhes (characteristic behaviors of convulsive contracting the abdomen, twisting the body and/or extending the legs) were observed. Number of writhes of each mouse was measured during 10 to 20 min. period after acetic acid administration. […] The analgesic activity of the compounds according to the present invention was evaluated on the basis of the degree of inhibiting the number writhes by the administration of the compounds. As the positive control, indomethacin or aspirin was administrated. The analgesic activity of the compounds according to the present invention measured in this test were exemplified in Table 7.
# [2] = system: Mouse Delayed Contact Dermatitis Induced by Picryl Chloride; experiment: Mouse delayed contact dermatitis induced by picryl chloride; format: in vivo
# Procedure: Pharmacological Test Example 3 Mouse Delayed Contact Dermatitis Induced by Picryl Chloride
# This pharmacological test was carried out referring to the method of Asherson, G. L. & Ptak, W. (Immunology, 15: 405–416 (1968).) and the method of Jun Hiroi (Folia Pharmacology of Japan, 86: 233–239 (1985).). More specifically, hairs on the abdomen of an ICR-strain male mouse were removed using an electric clipper and an electric shaver. Then, 0.1 mL of 7% ether solution of picryl chloride (Tokyo Kasei Kogyo Co., Ltd., C 0307) was applied onto the abdomen for sensitization. On the sixth day after the sensitization, 20 μL/ear of 1% olive oil solution of picryl chloride was topically applied to the anterior and posterior surfaces of both ears of the mouse to induce contact dermatitis (first induction). Before and 24 hours after the induction, the thicknesses of the particular parts on the both ears were measured three times, respectively, using a digimatic micrometer (Mitsutoyo Co., Ltd.) to work out the average values. Ear edema of the both ears was respectively determined by subtracting the average thickness of the each ear before the induction from that on 24 hours after the induction, so that a grouping was carried out to separate the appropriate individuals. On the fourth day after the first induction, the hairs on the abdomen were removed again, and 0.1 mL of 7% ethanol solution of picryl chloride was applied thereto for additional sensitization. The contact dermatitis for evaluating activity was induced by re-applying 20 μL/ear of 1% olive oil solution of picryl chloride to the anterior and posterior surfaces of both ears (second induction) on the seventh day after the additional sensitization (on the […] after the first sensitization). The activity of each compound of the present invention was evaluated as the inhibition on the contact dermatitis as compared with that of the vehicle applied control. That is, the thicknesses of the particular portions of the both ears were measured respectively three times with a digimatic micrometer to work out the mean values before, 24 hours and 48 hours after the second induction. Ear swelling was determined by subtracting the ear thickness before the second induction from that on 24 hours and 48 hours after the second induction, respectively. Topical application activity was evaluated by applying 25 μL of the acetone solution of the compound of the present invention similarly to the anterior and posterior surfaces of the right ear one hour before and 16 hours after the second induction. As the positive control, 0.02 mg/20 μL of acetone solution of Dexamethasone (hereinafter referred to as DEX, Wako Pure Chemical Industries Ltd., 047-18863) was applied similarly as for the compound of the present invention. With respect to the inhibitory activity in topical application tests, the topical activity was determined by the inhibition of the applied right ear edema, and the translocation and distribution property was determined by the activity onto the swelling of non-treated left ear. Oral administration activity was evaluated by administrating 0.5% methyl cellulose suspension of the compound of the present invention forcibly and perorally to the mouse an hour before and 16 hours after the second induction. As the positive control, 20 mg/kg of Prednisolone (Sigma Chemical Co., P 6004) suspension was administrated similarly as for the compounds of the present invention. […] As the examples, the body weight changes in the mice for 48 hours after the second induction when they were administrated with the compounds shown in Table 5 are shown in Table 6.
# [3] = system: Mouse Ear Edema Induced by TPA; experiment: Mouse ear edema induced by TPA; format: in vivo; conditions: topical, 0.3 mg/20 μL/ear × 2; ICR male mouse; 6 hours after TPA
# Procedure: Pharmacological Test Example 2: Mouse Ear Edema Induced by TPA
# This test was carried out referring to the method of Carlson, R. P. et al. (Agents and Actions, 17(2): 197–204 (1985).) and the method of Chang, J. (European Journal of Pharmacology, 142: 197–205 (1987).). More specifically, 5 μg/20 μL of TPA (Sigma Chemical Co.), dissolved with ethanol, was topically applied to the anterior and posterior surfaces of the right ear of an ICR-strain male mouse (6–7 weeks old). 6 hours later, the thickness of each ear at the particular part was respectively measured three times using a digimatic micrometer to calculate the mean value. Ear edema was determined by subtracting the mean thickness of the left ear as without treatment from that of the right ear as TPA-applied. Topical application activity was evaluated by applying an acetone solution of the compound of the present invention or 0.1% Tween 80/acetone solution thereof similarly to the anterior and posterior surfaces of the right ear 30 min. before and 15 min. after the TPA-application. […] Oral administration activity was evaluated by administrating 0.2% Tween 80 suspension of the compound of the present invention forcibly and perorally to the mouse an hour prior to the TPA-application. As the positive control, 100 mg/kg of Hydrocortisone (Sigma Chemical Co., H 4001) suspension was applied to the mouse similarly as for the compound of the present invention.
compound,measurement,setting,value
"CCOC(=O)C(=C1N[C@@H](C)[C@H](c2ccc(Cl)cc2)S1)[N+](=O)[O-] (relative stereo) [Compound 2-29, Trans-5-(4-chlorophenyl)-4-methyl-2-(1-ethoxycarbonyl-1-nitromethylene)-thiazolidine]",Number of writhes (Mean ± S.E.),"[1]; i.p. 1 mg/kg, 30 min before, vehicle i.p. 25.2 ± 2.2",5.5 ± 1.9
same,Number of writhes (Mean ± S.E.),"[1]; p.o. 10 mg/kg, 120 min before, vehicle p.o. 23.5 ± 3.1",1.5 ± 0.7
same,Change in body weight 48 hours after induction (Mean ± S.E.),"[2]; 1.5 mg/ear × 2, vehicle control −0.45 ± 0.20",-0.06 ± 0.15 g
same,Change in body weight 48 hours after induction (Mean ± S.E.) (%),"[2]; 1.5 mg/ear × 2, vehicle control −1.29 ± 0.59",−0.20 ± 0.48%
same,"Ear swelling after 24 hours, Right (Applied) (Mean ± S.E., mm)","[2]; topical 1.5 mg/25 μL/ear × 2, vehicle control 0.299 ± 0.006",0.261 ± 0.012 mm
same,"Ear swelling after 24 hours, Left (Not applied) (Mean ± S.E., mm)","[2]; topical 1.5 mg/25 μL/ear × 2 on right ear, vehicle control 0.284 ± 0.008",0.243 ± 0.020 mm
same,Ear Edema Inhibition (%),[3],78.6%
